From article PMC6268357, “Synthesis and Biological Evaluation of New Ligustrazine Derivatives as Anti-Tumor Agents” (Molecules, 2012)
Converted amounts (≈) assume the structure as drawn. “Also recorded” adds a separate entry of the source. Where two headings read alike, the source gives them in different places.

What was measured:
[1] = test system: Bel-7402 human cancer cell line; test: MTT anti-proliferation assay, Bel-7402; type: cell-based; settings: for IC50: Homo sapiens, read-out: IC50 Bel 7402
Experimental: (§1) The cytotoxicities of these compounds were tested on five cancer cell lines by the standard MTT assay. […] The growing tumor cells at a density 10^4 cells/mL were exposed to various concentrations of the tested drugs and incubated in a 96-well microtiter plate for 96 h (37 °C, 5% CO2). After MTT solution (20 μL, 5 mg/mL) was added to each well, the plate was incubated for a further 4 h. Then the media was removed. Formazan crystals were dissolved with DMSO (150 μL). After mixing well, the absorbance was quantified at 570 nm with a BIORAD 550 spectrophotometer. Wells containing no drugs were used as blanks. […] Tumor cell growth inhibitory rate was calculated in the following equation (1): [drawing 3] (1)

[2] = test system: A-549 human cancer cell line; test: MTT anti-proliferation assay, A549; type: cell-based; settings: for IC50: Homo sapiens, read-out: IC50 A549
Experimental: as §1

[3] = test system: HCT-8 human cancer cell line; test: MTT anti-proliferation assay, HCT-8; type: cell-based; settings: for IC50: Homo sapiens, read-out: IC50 HCT-8
Experimental: as §1

[4] = test system: BGC-823 human cancer cell line; test: MTT anti-proliferation assay, BGC-823; type: cell-based; settings: for IC50: Homo sapiens, read-out: IC50 BGC-823
Experimental: as §1

[5] = test system: A2780 human cancer cell line; test: MTT anti-proliferation assay, A2780; type: cell-based; settings: for IC50: Homo sapiens, read-out: IC50 A2780
Experimental: as §1

[6] = test system: chick chorioallantoic membrane (CAM); test: Chick chorioallantoic membrane (CAM) angiogenesis assay; type: in vivo, White Leghorn chicken; settings: for Number of microvessels on CAM, treatment (mean ± s): n = 6, implanted day 7, read day 11, microvessels 1 to 100 μm in diameter; for Anti-angiogenesis effect on CAM (in words): doses of 10 μg/egg and 40 μg/egg
Experimental: Fertilized White Leghorn chicken eggs, provided by the Chinese Academy of Agricultural Sciences, were placed in an incubator as soon as embryogenesis started and were kept under constant humidity of 65% at 37 °C. On day 7, a square window was opened on the shell and physiological saline (0.1 mL) was injected in to detach the shell membrane. Then gelatin sponges carrying the TMP stimulator derivatives at 10 μg/egg and 40 μg/egg were implanted, respectively. The control group was treated with physiological saline. The windows were sealed with medical adhesive tape and the incubation went on till the experiment day. The above steps were performed under sterile conditions. On the 11th day, the tapes were removed and the entire CAM was detached after tissue fixation with methanol/acetone (1:1, v/v). Then we used computer-assisted image tracking to obtain absolute values for the number of microvessels which were 1 to 100 μm in diameter. Data were analyzed using the t-test option of the of Statistics Analysis System, the values were expressed as mean ± s of 6 observations and P < 0.05 was considered significant.

[7] = Acute toxicity by oral administration in mice; type: in vivo; settings: both sexes, Kunming, mouse, in vivo, 3 g/kg, oral administration
Experimental: (§2) Kunming mice (Beijing Vital River Laboratory Animal Technology Company Limited, China) of both sexes, weighing 18–22 g, were divided into […] matched in weight and size. The mice were placed in cages and kept under standard environmental conditions with a standard rodent diet and water ad libitum under a 12 h light-dark cycle. They were deprived of food for 24 h but allowed free access to tap water throughout the experiments. This research was carried out in accordance with the “Regulation for the Administration of Affairs Concerning Experimental Animals” (State Council of China, 1988).
(§3) The maximum suspended dose (75 mg/mL) of 5 was prepared in bean oil solution, then one group of 20 mice of both sexes were administered the maximum tolerated dose (0.4 mL/10 g) by oral administration. The other 20 mice, the control group, were gave bean oil (0.4 mL/10 g) via gavage.The general behavior of the mice was observed continuously for 1 h after the treatment and then intermittently for 4 h, and thereafter over a period of 24 h. The mice were further observed for up to 14 days following treatment for any signs of toxicity and deaths, and the latency of death. Behavioral, toxic effects and mortality response were recorded.

Kunming mice = test: Acute toxicity by oral administration in mice; type: in vivo; settings: oral (gavage) 3 g/kg in bean oil, observed two weeks
Experimental: as §2, §3

[8] = MTT, 96 h exposure, maximal tested concentration 10.0 ig/mL
[9] = Bel-7402, MTT, 96 h exposure, maximal tested concentration 10.0 ig/mL
[10] = A549, MTT, 96 h exposure, maximal tested concentration 10.0 ig/mL
[11] = HCT-8, MTT, 96 h exposure, maximal tested concentration 10.0 ig/mL
[12] = BGC-823, MTT, 96 h exposure, maximal tested concentration 10.0 ig/mL
[13] = A2780, MTT, 96 h exposure, maximal tested concentration 10.0 ig/mL

Compound | Number of microvessels on CAM, treatment (mean ± s) ([6]; dose 10 μg/egg) | Number of microvessels on CAM, treatment (mean ± s) ([6]; dose 40 μg/egg) | IC50 [1, 9] | IC50 [2, 10] | IC50 [3, 11] | IC50 [4, 12] | IC50 [5, 13] | other results
1,7-bis(4-(3,5,6-Trimethylpyrazin-2-yl)-3-methoxyphenyl)-1,6-heptadiene-3,5-dione [Compound 4] | 3.8 ± 2.79 | 1.4 ± 1.22 | – | – | – | – | – | IC50 Bel 7402 [1, 8]: 6.391 µg/mL; IC50 A549 [2, 8]: 5.890 µg/mL; IC50 HCT-8 [3, 8]: 7.106 µg/mL; IC50 BGC-823 [4, 8]: 5.472 µg/mL; IC50 A2780 [5, 8]: 5.540 µg/mL; Anti-angiogenesis effect on CAM (in words) [6]: dramatically block the growth of new vessels
C[C@H](CCC(=O)O)[C@H]1CC[C@H]2[C@@H]3[C@H](O)C[C@@H]4C[C@H](O)CC[C@]4(C)[C@H]3C[C@H](O)[C@]12C [CA, cholic acid] | – | – | – | – | – | – | – | IC50 ([1]; Bel-7402, 96 h): > 10 µg/mL; IC50 ([2]; A549, 96 h): > 10 µg/mL; IC50 ([3]; HCT-8, 96 h): > 10 µg/mL; IC50 ([4]; BGC-823, 96 h): > 10 µg/mL; IC50 ([5]; A2780, 96 h): > 10 µg/mL
O=C(O)/C=C/c1ccccc1 [CIA, cinnamic acid] | – | – | > 10 µg/mL | > 10 µg/mL | > 10 µg/mL | > 10 µg/mL | > 10 µg/mL | –
COc1cc(/C=C/C(=O)CC(=O)/C=C/c2ccc(O)c(OC)c2)ccc1O [CU, curcumin] | – | – | 6.5 µg/mL (≈ 17.6 µM) | 6.52 µg/mL (≈ 17.7 µM) | 6.28 µg/mL (≈ 17 µM) | 6.81 µg/mL (≈ 18.5 µM) | 6.52 µg/mL (≈ 17.7 µM) | –
Cc1nc(C)c(COC(=O)CC[C@@H](C)C2CCC3C4CCC5C[C@H](O)CCC5(C)C4C[C@H](O)C32C)nc1C (stereo partly drawn) [Compound 5, 3 α,12α-Dihydroxy-5β-dholanic acid-3,5,6-trimethylpyrazin-2-methyl ester] | 4.8 ± 3.71 | 7.5 ± 3.40 | 8.01 µg/mL (≈ 15.2 µM) | 6.69 µg/mL (≈ 12.7 µM) | 7.43 µg/mL (≈ 14.1 µM) | 6.66 µg/mL (≈ 12.6 µM) | 6.62 µg/mL (≈ 12.6 µM) | Anti-angiogenesis effect on CAM (in words) [6]: dramatically block the growth of new vessels; LD50 at 14 days [7]: > 3000 mg/kg; MTD at 14 days ([7]; read-out: Maximum tolerated dose): 3000 mg/kg; Deaths or signs of toxicity (Kunming mice): no deaths or signs of toxicity observed; also recorded: no toxicity
Cc1nc(C)c(COC(=O)CC[C@@H](C)C2CCC3C4C(C[C@H](O)C32C)C2(C)CC[C@@H](O)CC2C[C@H]4O)nc1C (stereo partly drawn) [Compound 6, 3α,7α,12α-Trihydroxy-5β-cholanic acid-3,5,6-trimethylpyrazin-2-methyl ester] | 6.2 ± 2.40 | 5.7 ± 2.07 | > 10 µg/mL | > 10 µg/mL | > 10 µg/mL | > 10 µg/mL | > 10 µg/mL | –
Cc1nc(C)c(COC(=O)C23CCC(C)(C)CC2C2=CCC4C5(C)CCC(O)C(C)(C)C5CCC4(C)[C@]2(C)CC3)nc1C (stereo partly drawn) [Compound 7, 3β-Hydroxyolea-12-en-28-oic acid-3,5,6-trimethylpyrazin-2-methyl ester] | 12.0 ± 2.90 | 9.5 ± 4.55 | 7.61 µg/mL (≈ 12.9 µM) | > 10 µg/mL | 9.27 µg/mL (≈ 15.7 µM) | > 10 µg/mL | > 10 µg/mL | –
C=C(CCC(C(=O)OCc1nc(C)c(C)nc1C)C1[C@H](O)C[C@@]2(C)C3=C(CCC12C)C1(C)CCC(OC(C)=O)C(C)(C)C1CC3)C(C)C (stereo partly drawn) [Compound 8, 3β-Acetoxy-16α-hydroxy-lanosta-8,24(31)-diene-21-oic acid-3,5,6-trimethylpyrazin-2-methyl ester] | 9.7 ± 3.98 | 10.8 ± 5.12 | > 10 µg/mL | > 10 µg/mL | > 10 µg/mL | > 10 µg/mL | > 10 µg/mL | –
C=C(CCC(C(=O)OCc1nc(C)c(C)nc1C)C1[C@H](O)C[C@@]2(C)C3=CCC4C(C)(CCC(OC(C)=O)C4(C)C)C3=CCC12C)C(C)C (stereo partly drawn) [Compound 9, 3β-Acetoxy-16α-hydroxy-lanosta-7,9(11),24(31)-trien-21-oic acid-3,5,6-trimethylpyrazin-2-methyl ester] | 7.7 ± 2.16 | 5.7 ± 1.21 | > 10 µg/mL | 8.77 µg/mL (≈ 13.3 µM) | > 10 µg/mL | > 10 µg/mL | > 10 µg/mL | –
Cc1nc(C)c(COC(=O)[C@@]2(C)CCC3(C)CC[C@]4(C)C(=CC(=O)C5C6(C)CCC(O)C(C)(C)C6CCC54C)C3C2)nc1C (stereo partly drawn) [Compound 10, (3β,18α,20β)-3-Hydroxy-11-oxoolean-12-en-29-oicacid-3,5,6-trimethylpyrazin-2-methyl ester] | 9.5 ± 1.76 | 9.8 ± 2.14 | > 10 µg/mL | > 10 µg/mL | > 10 µg/mL | > 10 µg/mL | > 10 µg/mL | –
Cc1nc(C)c(COC(=O)/C=C/c2ccccc2)nc1C [Compound 11, 3-Phenyl-2-propenoic acid-3,5,6-trimethylpyrazin-2-methyl ester] | 10.3 ± 2.73 | 7.0 ± 3.03 | 9.4 µg/mL (≈ 33.3 µM) | 7.83 µg/mL (≈ 27.7 µM) | > 10 µg/mL | > 10 µg/mL | > 10 µg/mL | –
C[C@H](CCC(=O)O)[C@H]1CC[C@H]2[C@@H]3CC[C@@H]4C[C@H](O)CC[C@]4(C)[C@H]3C[C@H](O)[C@]12C [DA, deoxycholic acid] | – | – | > 10 µg/mL | > 10 µg/mL | > 10 µg/mL | > 10 µg/mL | > 10 µg/mL | –
C=C(CCC(C(=O)O)[C@H]1[C@H](O)C[C@@]2(C)C3=CC[C@H]4C(C)(C)[C@@H](OC(C)=O)CC[C@]4(C)C3=CC[C@]12C)C(C)C (stereo partly shown) [DPA, dehydropachymic acid] | – | – | – | – | – | – | – | IC50 Bel 7402 [1, 8]: — ^a (IC50 > 10.0 ig/mL); IC50 A549 [2, 8]: — (IC50 > 10.0 ig/mL); IC50 HCT-8 [3, 8]: — (IC50 > 10.0 ig/mL); IC50 BGC-823 [4, 8]: — (IC50 > 10.0 ig/mL); IC50 A2780 [5, 8]: — (IC50 > 10.0 ig/mL)
CC1(C)[C@@H](O)CC[C@]2(C)[C@H]3C(=O)C=C4[C@@H]5C[C@@](C)(C(=O)O)CC[C@]5(C)CC[C@@]4(C)[C@]3(C)CC[C@@H]12 [GA, glycyrrhetinic acid] | – | – | > 10 µg/mL | > 10 µg/mL | > 10 µg/mL | > 10 µg/mL | > 10 µg/mL | –
CC1(C)CC[C@]2(C(=O)O)CC[C@]3(C)C(=CC[C@@H]4[C@@]5(C)CC[C@H](O)C(C)(C)[C@@H]5CC[C@]43C)[C@@H]2C1 [OA, oleanolic acid] | – | – | > 10 µg/mL | > 10 µg/mL | > 10 µg/mL | > 10 µg/mL | > 10 µg/mL | –
C=C(CC[C@@H](C(=O)O)[C@H]1[C@H](O)C[C@@]2(C)C3=C(CC[C@]12C)[C@@]1(C)CC[C@H](OC(C)=O)C(C)(C)[C@@H]1CC3)C(C)C [PA, pachymic acid] | – | – | > 10 µg/mL | > 10 µg/mL | > 10 µg/mL | > 10 µg/mL | > 10 µg/mL | –
Cc1nc(C)c(C)nc1C [TMP, ligustrazine] | – | – | > 10 µg/mL | > 10 µg/mL | > 10 µg/mL | > 10 µg/mL | > 10 µg/mL | –
